Results reported in PubChem BioAssay (NCI).
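Growth conditions: 96-well plates. Treatment: test compound, 48 hours, 5 concentrations. Analysis: linear interpolation between bracketing concentrations; unreached endpoints set to highest concentration. TGI marks complete inhibition of growth.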

How the values were obtained:
Test in all cases: NCI anticancer screen, dose series, 48 h
786-0 renal = system: 786-0 renal
A498 renal = system: A498 renal
A549 NSCLC = system: A549 NSCLC
ACHN renal = system: ACHN renal
BT-549 breast = system: BT-549 breast
CAKI-1 renal = system: CAKI-1 renal
CCRF-CEM leukemia = system: CCRF-CEM leukemia
COLO 205 colon = system: COLO 205 colon
DLD-1 colon = system: DLD-1 colon
DMS 114 small cell lung = system: DMS 114 small cell lung
DMS 273 small cell lung = system: DMS 273 small cell lung
DU-145 prostate = system: DU-145 prostate
EKVX NSCLC = system: EKVX NSCLC
HCC-2998 colon = system: HCC-2998 colon
HCT-116 colon = system: HCT-116 colon
HCT-15 colon = system: HCT-15 colon
HL-60(TB) leukemia = system: HL-60(TB) leukemia
HOP-18 NSCLC = system: HOP-18 NSCLC
HOP-62 NSCLC = system: HOP-62 NSCLC
HOP-92 NSCLC = system: HOP-92 NSCLC
HS 578T breast = system: HS 578T breast
HT29 colon = system: HT29 colon
IGROV1 ovarian = system: IGROV1 ovarian
K-562 leukemia = system: K-562 leukemia
KM12 colon = system: KM12 colon
KM20L2 colon = system: KM20L2 colon
LOX IMVI melanoma = system: LOX IMVI melanoma
LXFL 529 NSCLC = system: LXFL 529 NSCLC
M14 melanoma = system: M14 melanoma
MALME-3M melanoma = system: MALME-3M melanoma
MCF7 breast = system: MCF7 breast
MDA-MB-231 breast = system: MDA-MB-231 breast
MDA-MB-435 = system: MDA-MB-435
MDA-N = system: MDA-N
MOLT-4 leukemia = system: MOLT-4 leukemia
NCI-H226 lung = system: NCI-H226 lung
NCI-H23 lung = system: NCI-H23 lung
NCI-H460 lung = system: NCI-H460 lung
NCI-H522 lung = system: NCI-H522 lung
NCI/ADR-RES ovarian = system: NCI/ADR-RES ovarian
OVCAR-3 ovarian = system: OVCAR-3 ovarian
OVCAR-4 ovarian = system: OVCAR-4 ovarian
OVCAR-5 ovarian = system: OVCAR-5 ovarian
OVCAR-8 ovarian = system: OVCAR-8 ovarian
PC-3 prostate = system: PC-3 prostate
RPMI-8226 leukemia = system: RPMI-8226 leukemia
RXF 393 renal = system: RXF 393 renal
SF-268 CNS = system: SF-268 CNS
SF-295 CNS = system: SF-295 CNS
SF-539 CNS = system: SF-539 CNS
SK-MEL-2 melanoma = system: SK-MEL-2 melanoma
SK-MEL-28 melanoma = system: SK-MEL-28 melanoma
SK-MEL-5 melanoma = system: SK-MEL-5 melanoma
SK-OV-3 ovarian = system: SK-OV-3 ovarian
SN12C renal = system: SN12C renal
SNB-19 CNS = system: SNB-19 CNS
SNB-75 CNS = system: SNB-75 CNS
SNB-78 CNS = system: SNB-78 CNS
SR leukemia = system: SR leukemia
SW-620 colon = system: SW-620 colon
T-47D breast = system: T-47D breast
TK-10 renal = system: TK-10 renal
U251 CNS = system: U251 CNS
UACC-257 melanoma = system: UACC-257 melanoma
UACC-62 melanoma = system: UACC-62 melanoma
UO-31 renal = system: UO-31 renal
M19-MEL melanoma = system: M19-MEL melanoma

## O=C1C=C(Nc2cccnc2)c2ccccc2C1=O
786-0 renal
  TGI: 23.8 µM
A498 renal
  TGI: 22.3 µM
A549 NSCLC
  TGI: 13.3 µM
ACHN renal
  TGI: 20.5 µM
BT-549 breast
  TGI: 3.83 µM
CAKI-1 renal
  TGI: 18.6 µM
CCRF-CEM leukemia
  TGI: 51.9 µM
COLO 205 colon
  TGI: 38.6 µM
DLD-1 colon
  TGI: 20 µM
DMS 114 small cell lung
  TGI: 5.01 µM
DMS 273 small cell lung
  TGI: > 39.6 µM
DU-145 prostate
  TGI: 14.1 µM
EKVX NSCLC
  TGI: 26.7 µM
HCC-2998 colon
  TGI: 30.5 µM
HCT-116 colon
  TGI: 25.6 µM
HCT-15 colon
  TGI: 29.3 µM
HL-60(TB) leukemia
  TGI: 23 µM
HOP-18 NSCLC
  TGI: 22 µM
HOP-62 NSCLC
  TGI: 12.9 µM
HOP-92 NSCLC
  TGI: 27.1 µM
HS 578T breast
  TGI: 8.33 µM
HT29 colon
  TGI: 33.7 µM
IGROV1 ovarian
  TGI: 18.7 µM
K-562 leukemia
  TGI: 22.7 µM
KM12 colon
  TGI: 23.4 µM
KM20L2 colon
  TGI: > 62.3 µM
LOX IMVI melanoma
  TGI: 9.9 µM
LXFL 529 NSCLC
  TGI: > 51.3 µM
M14 melanoma
  TGI: 6.76 µM
MALME-3M melanoma
  TGI: 5.35 µM
MCF7 breast
  TGI: 8.2 µM
MDA-MB-231 breast
  TGI: 20.4 µM
MDA-MB-435
  TGI: 1390 nM
MDA-N
  TGI: 1420 nM
MOLT-4 leukemia
  TGI: 46.6 µM
NCI-H226 lung
  TGI: 38.1 µM
NCI-H23 lung
  TGI: 9.41 µM
NCI-H460 lung
  TGI: 12.5 µM
NCI-H522 lung
  TGI: 15.5 µM
NCI/ADR-RES ovarian
  TGI: 23.9 µM
OVCAR-3 ovarian
  TGI: 11.6 µM
OVCAR-4 ovarian
  TGI: 19.9 µM
OVCAR-5 ovarian
  TGI: 18.4 µM
OVCAR-8 ovarian
  TGI: 23.1 µM
PC-3 prostate
  TGI: 52.4 µM
RPMI-8226 leukemia
  TGI: 51.3 µM
RXF 393 renal
  TGI: 38 µM
SF-268 CNS
  TGI: 20.9 µM
SF-295 CNS
  TGI: 9.09 µM
SF-539 CNS
  TGI: 8.41 µM
SK-MEL-2 melanoma
  TGI: 25.1 µM
SK-MEL-28 melanoma
  TGI: 13.5 µM
SK-MEL-5 melanoma
  TGI: 2580 nM
SK-OV-3 ovarian
  TGI: 22.1 µM
SN12C renal
  TGI: 21.5 µM
SNB-19 CNS
  TGI: 24.8 µM
SNB-75 CNS
  TGI: 5.45 µM
SNB-78 CNS
  TGI: 38 µM
SR leukemia
  TGI: 37 µM
SW-620 colon
  TGI: 18.7 µM
T-47D breast
  TGI: 43.8 µM
TK-10 renal
  TGI: 34.5 µM
U251 CNS
  TGI: 24.4 µM
UACC-257 melanoma
  TGI: 4.48 µM
UACC-62 melanoma
  TGI: 3.31 µM
UO-31 renal
  TGI: 24.2 µM

## CNc1nc(N)cc(=O)[nH]1
786-0 renal
  TGI: > 100 µM
A498 renal
  TGI: > 100 µM
A549 NSCLC
  TGI: > 100 µM
ACHN renal
  TGI: > 100 µM
CAKI-1 renal
  TGI: > 100 µM
CCRF-CEM leukemia
  TGI: > 100 µM
COLO 205 colon
  TGI: > 100 µM
DLD-1 colon
  TGI: > 100 µM
DMS 114 small cell lung
  TGI: > 100 µM
DMS 273 small cell lung
  TGI: > 100 µM
EKVX NSCLC
  TGI: > 100 µM
HCC-2998 colon
  TGI: > 100 µM
HCT-116 colon
  TGI: > 100 µM
HCT-15 colon
  TGI: > 100 µM
HL-60(TB) leukemia
  TGI: > 100 µM
HOP-62 NSCLC
  TGI: > 100 µM
HT29 colon
  TGI: > 100 µM
IGROV1 ovarian
  TGI: > 100 µM
K-562 leukemia
  TGI: > 100 µM
KM12 colon
  TGI: > 100 µM
KM20L2 colon
  TGI: > 100 µM
LOX IMVI melanoma
  TGI: > 100 µM
LXFL 529 NSCLC
  TGI: > 100 µM
M14 melanoma
  TGI: > 100 µM
M19-MEL melanoma
  TGI: > 100 µM
MALME-3M melanoma
  TGI: > 100 µM
MOLT-4 leukemia
  TGI: > 100 µM
NCI-H226 lung
  TGI: > 100 µM
NCI-H23 lung
  TGI: > 100 µM
NCI-H460 lung
  TGI: > 100 µM
NCI-H522 lung
  TGI: > 100 µM
OVCAR-3 ovarian
  TGI: > 100 µM
OVCAR-4 ovarian
  TGI: > 100 µM
OVCAR-5 ovarian
  TGI: > 100 µM
OVCAR-8 ovarian
  TGI: > 100 µM
RPMI-8226 leukemia
  TGI: > 100 µM
SF-268 CNS
  TGI: > 100 µM
SF-295 CNS
  TGI: > 100 µM
SK-MEL-2 melanoma
  TGI: > 100 µM
SK-MEL-28 melanoma
  TGI: > 100 µM
SK-MEL-5 melanoma
  TGI: > 100000 nM
SK-OV-3 ovarian
  TGI: > 100 µM
SN12C renal
  TGI: > 100 µM
SNB-19 CNS
  TGI: > 100 µM
SNB-75 CNS
  TGI: > 100 µM
SNB-78 CNS
  TGI: > 100 µM
SW-620 colon
  TGI: > 100 µM
TK-10 renal
  TGI: > 100 µM
U251 CNS
  TGI: > 100 µM
UACC-257 melanoma
  TGI: > 100 µM
UACC-62 melanoma
  TGI: > 100 µM
UO-31 renal
  TGI: > 100 µM
